Experimental data published in patent publication US8048862B2, “Macrocyclic inhibitors of hepatitis C virus replication” (priority 2008, dated 2011).
pEC50, pIC50: −log10 of the molar value. Where two headings read alike, the source gives them in different places.

Columns and labels:
NS3/NS4 complexes = NS3/NS4 complexes (Hepatitis C virus genotype 1a, UniProt P27958); assay: NS3/NS4 inhibition activity (IC50); type: biochemical
Summary of the method: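 Buffer: 50 mM Tris-HCl (pH 7.5), 10 mM DTT, 25 μM NS4A peptide, 0.6 mM LDAO and 15% glycerol. Assays were run at 23 °C with preformed NS3/NS4 complex, and the compound concentration giving inhibition was derived as an IC50.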

hepatitis C replicon = hepatitis C replicon EC50; type: cell-based; conditions: Hepatitis C virus; Table 3; hepatitis C replicon; read-out: EC50
Description: NS3-NS4 inhibition activity can be determined using known assay methods.

[1] = system: hepatitis C virus (HCV RNA levels), chronic hepatitis C genotype 1; assay: ITMN-191 combination therapy with SOC (PEG-IFN alfa-2a and ribavirin), 14 days, effect on HCV viral load in patients; type: in vivo; conditions: for HCV RNA (<43 IU/mL) (%): after 14 days of treatment; for median change in HCV RNA from baseline: 14 days of triple combination therapy
Description: This is a double-blind, placebo-controlled, multicenter study in treatment-naïve patients with chronic hepatitis C genotype 1 infection. All patients receive standard of care (SOC) treatment with PEG-IFN alfa-2a and weight-based ribavirin in accordance with the product labeling. In addition to this standard of care treatment, patients are randomized to receive either ITMN-191 or matching placebo, administered in the fed state, for 14 complete days, and a single dose on Day 15. PEG-IFN alfa-2a and ribavirin is provided from Day 0 and following the completion of study drug treatment on Day 15 through Day 44. No other HCV therapies are permitted prior to Day 44. All patients receive SOC and then are administered a pill containing either ITMN-191 or placebo. The ITMN-191 was administered in the form of its sodium salt.
Patients are admitted to a research facility and initiate PEG-IFN alfa-2a and ribavirin on Day O, Study drug (ITMN-191 or placebo) administration begins on Day 1 and continues to the morning of Day 15, and patients are discharged from the research facility on Day 16. Meals and activity levels are standardized across research facilities. Patients are contacted by telephone on Day 21 and return to the research facility for the Safety Follow-up Visit on Day 28 and the End of Study Visit on Day 44.
Over the course of the study, blood samples are obtained for clinical laboratory analysis and for PK (pharmokinetics) and VK (viral kinetics). In addition, blood samples to assess VR (viral rebound) are obtained. To monitor potential cardiac toxicity, cardiac troponin are assessed every day during the treatment period.
End of treatment (EOT) and nadir HCV RNA levels were used to define virologic rebound, continual decline, and plateau response patterns. NS3 protease domain was amplified and population sequenced by nested reverse transcription polymerase chain reaction (RT-PCR). Amplicons were cloned into a novel NS3 phenotyping vector and this plasmid used for clonal sequencing. The HCV RNA levels were determined by Roche COBAS Taqman HCV/HPS test, v2.0. This is a reverse transcriptase PCR method.

[2] = system: hepatitis C virus (HCV RNA levels), chronic hepatitis C genotype 1; assay: ITMN-191 monotherapy, 14 days, effect on HCV viral load in patients; type: in vivo; conditions: for median reduction in HCV RNA levels at end of treatment (EOT) (Day 14): sodium salt oral
Procedure: The study was designed to provide the plasma pharmacokinetics (PK) of multiple ascending daily oral doses of ITMN-191 monotherapy and to evaluate the viral kinetics (VK) of multiple ascending daily oral doses of ITMN-191 monotherapy in patients, as measured by changes from Baseline in hepatitis C virus ribonucleic acid (HCV RNA) levels. The ITMN-191 was administered in the form of its sodium salt.
In Part A and Part B, up to six cohorts (treatment arms) of 10 patients each were planned. In Part A, up to five cohorts of 10 treatment-naïve patients per cohort were planned to receive multiple ascending doses of study drug. Patients within each of the five cohorts were randomly assigned 8:2 to receive either ITMN-191 or placebo for 14 days. In Part B, one cohort of non-responder (NR) patients (Cohort 6) was planned to receive a single dose level of study drug for 14 days. Patients in Cohort 6 were randomly assigned 8:2 to receive either ITMN-191 (8 patients) or placebo (2 patients).
The treatment period consisted of 14 days of blinded study drug. In Part A, optional Standard of Care (SOC) consisting of PEG-IFN-α plus ribivarin (RBV) therapy was provided to treatment-naïve patients 24 hours after the last dose on Day 14. In Part B, NR patients were not permitted to start any additional HCV therapy before Day 44.
Efficacy was evaluated by log10 reductions in HCV RNA levels and reductions in ALT values using the Efficacy-Evaluable Population, defined as those patients who received at least 90% of prescribed doses of assigned blinded study drug. Three patients in the treatment-naive 200 mg q12h cohort received less than the assigned randomized dose and were excluded from all efficacy analyses. The HCV RNA levels were determined by Roche COBAS Taqman HCV/HPS test, v2.0. This is a reverse transcriptase PCR method.
In Parts A and B, rebound, plateau, and continuous decline of virologic response profiles were defined based on the HCV RNA level at end of treatment (EOT) relative to the nadir HCV RNA level. […] The frequency of rebound for treatment-naïve patients (Part A) was higher in the 100 mg […] treatment arm (4 patients) than in the higher dose treatment arms (2 to 3 patients). The frequency of rebound for NR patients (Part B) was the same (2 patients) as for the treatment-naïve patients in the 100 mg q8h treatment arm. However, there were no statistically significant differences in ITMN-191 AUC, Cmax, or Cτ between rebound, plateau, and continual decline groups. At EOT, every patient classified as experiencing virologic rebound carried NS3 variants in which arginine at amino acid position 155 was replaced, at least in part, by lysine.

[3] = any combination therapy cohort, 14 days
[4] = NR (nonresponder) patients, 300 mg q8h, 14 days
[5] = all ITMN-191 treated patients, Parts A and B, monotherapy 14 days
[6] = treatment-naïve patients, 200 mg q8h, 14 days
[7] = treatment-naïve patients, 200 mg q12h, 14 days

Sequence of NS3/NS4 complexes (P27958 1027-1657): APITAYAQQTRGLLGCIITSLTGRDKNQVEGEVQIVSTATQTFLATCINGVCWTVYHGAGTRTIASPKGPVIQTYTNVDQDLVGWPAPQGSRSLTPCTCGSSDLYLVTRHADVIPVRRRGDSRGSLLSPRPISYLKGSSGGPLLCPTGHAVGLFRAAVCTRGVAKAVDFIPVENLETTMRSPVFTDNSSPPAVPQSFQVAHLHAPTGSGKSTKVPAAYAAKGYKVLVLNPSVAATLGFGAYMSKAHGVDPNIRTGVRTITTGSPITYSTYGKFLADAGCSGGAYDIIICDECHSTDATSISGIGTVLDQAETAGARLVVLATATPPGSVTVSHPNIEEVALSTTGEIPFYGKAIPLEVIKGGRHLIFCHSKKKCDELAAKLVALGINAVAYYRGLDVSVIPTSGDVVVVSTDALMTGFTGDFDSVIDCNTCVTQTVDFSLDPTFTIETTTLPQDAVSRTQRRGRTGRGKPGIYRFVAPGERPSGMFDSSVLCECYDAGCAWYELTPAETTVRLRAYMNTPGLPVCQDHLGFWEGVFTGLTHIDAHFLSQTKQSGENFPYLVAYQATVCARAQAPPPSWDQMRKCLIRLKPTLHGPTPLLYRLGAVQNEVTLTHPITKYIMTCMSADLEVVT
Sequence of NS3/NS4 complexes (P27958 1658-1711): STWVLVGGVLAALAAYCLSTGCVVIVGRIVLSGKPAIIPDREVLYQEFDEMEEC

Cc1ccc2c(c1)nc(O[C@@H]1C[C@H]3C(=O)N[C@]4(C(=O)NS(=O)(=O)N(C)C)C[C@H]4/C=C\CCCCC[C@H](NC(=O)OC(C)(C)C)C(=O)N3C1)n2C(C)C [Compound 1137]
pIC50 (NS3/NS4 complexes; Table 3, read-out: IC50): > 8.00 | pEC50 (hepatitis C replicon): > 8.00

Cc1cccc2nc(O[C@@H]3C[C@H]4C(=O)N[C@]5(C(=O)NS(=O)(=O)N(C)C)C[C@H]5/C=C\CCCCC[C@H](NC(=O)OC(C)(C)C)C(=O)N4C3)n(C(C)C)c12 [Compound 1138]
pIC50 (NS3/NS4 complexes; Table 3, read-out: IC50): > 8.00 | pEC50 (hepatitis C replicon): > 8.00

Cc1ccc2nc(O[C@@H]3C[C@H]4C(=O)N[C@]5(C(=O)NS(=O)(=O)N(C)C)C[C@H]5/C=C\CCCCC[C@H](NC(=O)OC(C)(C)C)C(=O)N4C3)n(C(C)C)c2c1 [Compound 1139]
pIC50 (NS3/NS4 complexes; Table 3, read-out: IC50): > 8.00 | pEC50 (hepatitis C replicon): > 8.00

Cc1cccc2c1nc(O[C@@H]1C[C@H]3C(=O)N[C@]4(C(=O)NS(=O)(=O)N(C)C)C[C@H]4/C=C\CCCCC[C@H](NC(=O)OC(C)(C)C)C(=O)N3C1)n2C(C)C [Compound 1140]
pIC50 (NS3/NS4 complexes; Table 3, read-out: IC50): > 8.00 | pEC50 (hepatitis C replicon): > 8.00

CN(C)S(=O)(=O)NC(=O)[C@@]12C[C@H]1/C=C\CCCCC[C@H](NC(=O)OC(C)(C)C)C(=O)N1C[C@H](Oc3nc4ccccc4n3C3CCCC3)C[C@H]1C(=O)N2 [Compound 1141]
pIC50 (NS3/NS4 complexes; Table 3, read-out: IC50): > 8.00 | pEC50 (hepatitis C replicon): > 8.00

CC(C)n1c(O[C@@H]2C[C@H]3C(=O)N[C@]4(C(=O)NS(=O)(=O)C5CC5)C[C@H]4/C=C\CCCCC[C@H](NC(=O)OC(C)(C)C)C(=O)N3C2)nc2ccccc21 [Compound 1142]
pIC50 (NS3/NS4 complexes; Table 3, read-out: IC50): > 8.00 | pEC50 (hepatitis C replicon): > 8.00

CN(C)S(=O)(=O)NC(=O)[C@@]12C[C@H]1/C=C\CCCCC[C@H](NC(=O)OC(C)(C)C)C(=O)N1C[C@H](Oc3nc4ccccc4n3COCC[Si](C)(C)C)C[C@H]1C(=O)N2 [Compound 1143]
pIC50 (NS3/NS4 complexes; IC50, Table 3): > 8.00 | pEC50 (hepatitis C replicon): < 7.00

CN(C)S(=O)(=O)NC(=O)[C@@]12C[C@H]1/C=C\CCCCC[C@H](NC(=O)OC(C)(C)C)C(=O)N1C[C@H](Oc3nc4ccccc4[nH]3)C[C@H]1C(=O)N2 [Compound 1144]
pIC50 (NS3/NS4 complexes; Table 3, read-out: IC50): > 8.00 | pEC50 (hepatitis C replicon): < 7.00

CC(C)(C)OC(=O)N[C@H]1CCCCC/C=C\[C@@H]2C[C@@]2(C(=O)NS(=O)(=O)C2CC2)NC(=O)[C@@H]2C[C@@H](OC(=O)N3Cc4cccc(F)c4C3)CN2C1=O [ITMN-191]
HCV RNA (<43 IU/mL) (%) ([1]; 100 mg q8h (300 mg) and SOC): 75% | Median Change Log10 (IU/mL) HCV RNA at EOT ([1]; 100 mg q8h (300 mg) in combination with SOC, 14 days): −5.5 Log10 (IU/mL) | HCV RNA (<43 IU/mL) (%) ([1]; 200 mg q8h (600 mg) and SOC): 88% | Median Change Log10 (IU/mL) HCV RNA at EOT ([1]; 200 mg q8h (600 mg) in combination with SOC, 14 days): −5.7 Log10 (IU/mL) | Median Change Log10 (IU/mL) HCV RNA at EOT ([1]; 300 mg q8h (900 mg) in combination with SOC, 14 days): −5.6 Log10 (IU/mL) | Median Change Log10 (IU/mL) HCV RNA at EOT ([1]; 400 mg q12h (800 mg) in combination with SOC, 14 days): −4.7 Log10 (IU/mL) | Median Change Log10 (IU/mL) HCV RNA at EOT ([1]; 600 mg q12h (1200 mg) in combination with SOC, 14 days): −5.4 Log10 (IU/mL) | Median Change Log10 (IU/mL) HCV RNA at EOT ([1]; 900 mg q12h (1800 mg) in combination with SOC, 14 days): −5.5 Log10 (IU/mL) | patients with HCV RNA below the limit of quantification (<25 IU/mL) ([1]; all doses and intervals (32 of 45 patients), combination with SOC, 14 days): 71% | patients with HCV RNA levels below 9.3 IU/mL [1, 3]: at least 13% | patients with HCV RNA levels below 25 IU/mL [1, 3]: at least 57% | median change in HCV RNA from baseline ([1]; best performing q8h cohort): −5.7 log | median change in HCV RNA from baseline ([1]; best performing q12h cohort): −5.5 log | median change in HCV RNA from baseline ([1]; five of the six cohorts): exceeded 5 logs | median ALT decline from Baseline at EOT [2, 4]: −34.5 U/L | median maximum reduction in HCV RNA levels [2, 4]: −2.93 log10 IU/mL | median reduction in HCV RNA at EOT [2, 4]: −2.46 log10 IU/mL | frequency of rebound ([2]; NR patients (Part B)): 2 patients | patients experiencing continual decline in HCV RNA level [2, 5]: 14/40 | patients experiencing plateau [2, 5]: 12/40 | median maximum post-Baseline change in HCV RNA ([2]; single NR cohort (Part B), 300 mg q12h dose as printed in the conclusions): −2.93 log10 IU/mL | frequency of rebound ([2]; treatment-naïve patients, 100 mg q2h treatment arm): 4 patients | frequency of rebound ([2]; treatment-naïve patients, 100 mg q8h treatment arm): 2 patients | median EOT reduction of ALT [2, 6]: −37.5 U/L | median maximum reduction in HCV RNA levels [2, 6]: −3.90 log10 IU/mL | median reduction in HCV RNA levels at end of treatment (EOT) (Day 14) [2, 6]: −3.76 log10 IU/mL | median maximum reduction in HCV RNA levels [2, 7]: −3.17 log10 IU/mL | median reduction in HCV RNA levels at end of treatment (EOT) (Day 14) [2, 7]: −3.12 log10 IU/mL
